Data taken from EP3015165A1, “MATERIAL AND METHOD FOR CAPTURING, DETECTING AND Q[…] SULPHUR COMPOUNDS” (priority 2014, dated 2016).
In brackets after ≈: the same amount, converted by molar mass.

What was measured:
[1] = cited from earlier work
[2] = [gas]/[liq], grandeur sans dimension; cited from earlier work
[3] = couples H2S/HS^- et CH3SH/CH3S^-; cited from earlier work
[4] = exposition prolongée à forte concentration; cited from earlier work
[5] = Kinetics of the probe-target reaction in aqueous solution at neutral pH; details: pH=7,4, target 50 µM and DTNB 5 µM (Figure 2A)
Protocol: (§1) Or, en milieu acide, les VSC modèles, à savoir le sulfure d'hydrogène et le méthanethiol, sont peu solubles. La présente étude a donc été menée en solution à pH neutre et, par conséquent sur les formes déprotonées Na2S et (CH3)SNa des deux VSC modèles.
Cette étude a montré que la cinétique de la réaction est suffisamment rapide pour envisager de l'employer dans un xérogel comme réaction de transduction : en moins de 5 min, l'équilibre est atteint (Figure 2A). On peut remarquer également que la réaction de détection du (CH3)SNa est moins rapide que celle de Na2S, avec en outre un moins bon rendement.

[6] = Stability of the probe in solution as a function of pH; format: physicochemical; details: milieu basique, from pH 9 the disulphide bridge breaks by itself in a few hours
Text: as §1

[7] = Solubility limit in ethanol; format: physicochemical; details: organic solvent or mixture, éthanol, read-out: limite de solubilité dans l'éthanol
Protocol: Le TMOS et l'éthanol sont mélangés dans un premier temps. Puis le volume désiré de DMPD à 0,5 M dans l'eau est introduit, suivi du volume désiré de FeCl3 à 0,5 M dans 0,267 M HCl. La quantité d'eau restante pour atteindre 1,44 mL suit l'ajout d'HCl provoquant un échauffement du sol qui est agité le temps de refroidir. Pour les formulations fortement dopées en DMPD, il est nécessaire de dissoudre la DMPD dans l'éthanol plutôt que dans l'eau. La limite de solubilité de la DMPD dans l'éthanol est de 21 mM.

Which “solubilité dans l'eau” value [1] does the source give for CS [CH3SH, méthanethiol] here?
Its value is 0,48 mol.L^-1.

And the “constante de Henry Hcc” value [2]?
Its value is 1,23.10^-1.

And the pKa [3]?
Its pKa is 12,0.

Which “constante de Henry Hcc” value [2] does the source give for S [H2S, sulfure d'hydrogène] here?
The value was 4,09.10^-1.

And the pKa [3]?
Its pKa is 7,0.

And the “concentration causing paralysie du nerf olfactif” value [4]?
The value was 100 à 150 ppm.

With O=C(O)c1cc(SSc2ccc([N+](=O)[O-])c(C(=O)O)c2)ccc1[N+](=O)[O-] [DTNB, acide 5,5'-dithiobis(2-nitrobenzoïque)] as the molecule, how does the “time to reach equilibrium of the reaction” value [5] read?
Its value is less than 5 min.

And the stability in solution [6]?
Its stability in solution is “n'est pas stable”.

For CN(C)c1ccc(N)cc1 [DMPD, N,N-diméthylparaphénylènediamine], which solubility [7] is on record?
Its solubility is 21 mM (≈ 2860 µg/mL).
